Data from PubChem BioAssay (NCI).
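1) Cells in 96-well plates. 2) Compound, 48 h, 5 concentrations. 3) Linear interpolation between surrounding doses. 4) Unreached endpoint = highest concentration. GI50 is the concentration that inhibits growth by half. The concentration for full growth arrest is given as TGI.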

Experiments:
Assay in all cases: NCI-60 cell line screen, 48 h
[1] = system: CCRF-CEM leukemia
[2] = system: 786-0 renal
[3] = system: CAKI-1 renal
[4] = system: UACC-257 melanoma
[5] = system: IGROV1 ovarian
[6] = system: T-47D breast
[7] = system: OVCAR-8 ovarian
[8] = system: A498 renal
[9] = system: MDA-MB-231 breast
[10] = system: HL-60(TB) leukemia
[11] = system: SNB-19 CNS
[12] = system: SF-268 CNS
[13] = system: HCC-2998 colon
[14] = system: NCI-H226 lung
[15] = system: OVCAR-4 ovarian
[16] = system: ACHN renal
[17] = system: KM12 colon
[18] = system: MDA-MB-435
[19] = system: COLO 205 colon
[20] = system: A549 NSCLC
[21] = system: HOP-62 NSCLC
[22] = system: SN12C renal
[23] = system: SK-MEL-5 melanoma
[24] = system: HS 578T breast
[25] = system: OVCAR-3 ovarian
[26] = system: HT29 colon
[27] = system: SK-MEL-28 melanoma
[28] = system: K-562 leukemia
[29] = system: RPMI-8226 leukemia

COc1ccc(C(C)=C(c2ccc(OCCN3CCCCCC3)cc2)c2ccc(OCCN3CCCCCC3)cc2)cc1 gave a GI50 [1] of 503 nM, a TGI [1] of 4320 nM and a GI50 [2] of 606 nM. It also gave a TGI [2] of 1550 nM, a GI50 [3] of 1390 nM and a TGI [3] of 3730 nM. For the same molecule, the GI50 [4] was 587 nM, the TGI [4] was 1590 nM and the GI50 [5] was 1870 nM. It also gave a TGI [5] of 4280 nM, a GI50 [6] of 628 nM and a TGI [6] of 4550 nM. For the same molecule, the GI50 [7] was 2620 nM, the TGI [7] was 6820 nM and the GI50 [8] was 2200 nM. The TGI [8] was 4410 nM, the GI50 [9] was 1360 nM and the TGI [9] was 3950 nM. It also gave a GI50 [10] of 1020 nM, a TGI [10] of 2320 nM and a GI50 [11] of 1360 nM. The TGI [11] was 4020 nM, the GI50 [12] was 1710 nM and the TGI [12] was 5070 nM. For the same molecule, the GI50 [13] was 540 nM, the TGI [13] was 2000 nM and the GI50 [14] was 2320 nM. For the same molecule, the TGI [14] was 5330 nM, the GI50 [15] was 2430 nM and the TGI [15] was 5900 nM. The GI50 [16] was 2090 nM, the TGI [16] was 4370 nM and the GI50 [17] was 1220 nM. The TGI [17] was 4010 nM, the GI50 [18] was 422 nM and the TGI [18] was 1170 nM. The GI50 [19] was 375 nM, the TGI [19] was 948 nM and the GI50 [20] was 1230 nM. The TGI [20] was 3850 nM, the GI50 [21] was 1070 nM and the TGI [21] was 3490 nM. For the same molecule, the GI50 [22] was 2090 nM, the TGI [22] was 4800 nM and the GI50 [23] was 1310 nM. It also gave a TGI [23] of 3470 nM, a GI50 [24] of 1120 nM and a TGI [24] of 4560 nM. It also gave a GI50 [25] of 1870 nM, a TGI [25] of 4070 nM and a GI50 [26] of 545 nM. For the same molecule, the TGI [26] was 2100 nM, the GI50 [27] was 312 nM and the TGI [27] was 593 nM. For the same molecule, the GI50 [28] was 338 nM, the TGI [28] was 825 nM and the GI50 [29] was 443 nM. The TGI [29] was 1090 nM.
